A short description of data set [1]: Highest frequency of moderate liver toxicity observed during clinical trials, expressed as a percentage. [column '% BIOL' in source]. The note with it: human.
Data set [2] in a line: Highest frequency of acute liver toxicity observed during clinical trials, expressed as a percentage. [column '% AIGUE' in source]. The conditions noted are these: human.
Data set [3] is described as follows: Presence of at least one case with successful reintroduction. [column 'REINT' in source]. The conditions noted are these: human.
A short description of data set [4]: Comments (NB not yet translated). [column 'COMMENTAIRES' in source]. The note with it: human.
Data set [5] in a line: Times to onset, minimal and maximal, observed in the indexed observations. [column 'DELAI' in source]. The conditions noted are these: human.
The nature of data set [6]: Proposed mechanism(s) of liver damage. [column 'MEC' in source]. The conditions noted are these: human.
The conditions of data set [7]: human, serum.
The conditions of data set [8]: human, serum. This is another data set of the same source.
The conditions of data set [9]: human.
The conditions of data set [10]: human. The source holds these as a separate data set.
The conditions of data set [11]: human. The source holds these as a separate data set.
The conditions of data set [12]: human, serum, 4383 h.
For data set [13] the following is noted: human. The source holds these as a separate data set.
The conditions of data set [14]: human. The source holds these as a separate data set.
For data set [15] the following is noted: human. This is another data set of the same source.
The conditions of data set [16]: human. The source holds these as a separate data set.
The conditions of data set [17]: human. This is another data set of the same source.
For data set [18] the following is noted: human. The source holds these as a separate data set.
For data set [19] the following is noted: human. The source holds these as a separate data set.
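For Hepatotoxicity (association with vascular disease) in this document: count of indexed literature references reporting vascular liver injury in humans, e.g. peliosis hepatitis, hepatic veno-occlusive disease or Budd-Chiari syndrome.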
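For Hepatotoxicity (benign tumour) in this document: value is a count of indexed literature references citing a benign tumour confirmed by histopathology.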
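For Hepatotoxicity (choleostasis) in this document: human cholestatic liver injury, shown by histopathology or by peak ALT or AST elevation over alkaline phosphatase ratio below 2, value counts indexed literature reports.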
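For Hepatotoxicity (chronic liver disease) in this document: chronic liver injury confirmed by histopathology or persistently raised serum aminotransferase activity beyond 6 months, value given as the count of indexed literature references.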
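For Hepatotoxicity (cirrhosis) in this document: value is a count of indexed literature references reporting cirrhosis confirmed by histopathology.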
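For Hepatotoxicity (cytolytic) in this document: human cytolytic liver injury, shown by histopathology or by a ratio above 5 of peak ALT or AST elevation to alkaline phosphatase elevation, value counts indexed references.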
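For Hepatotoxicity (granulomatous hepatitis) in this document: value is a count of indexed literature references reporting granulomatous liver disease confirmed by histopathology.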
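For Hepatotoxicity (malignant tumour) in this document: malignant tumour confirmed by histopathology, value gives the count of indexed literature references reporting it.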
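For Hepatotoxicity (severe hepatitis) in this document: human clinical data: severe hepatitis, meaning potentially life-threatening liver failure or clinically observed cases, the value counts how many indexed literature references report it.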
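For Hepatotoxicity (steatosis) in this document: steatosis confirmed by histopathology, value is the count of indexed references.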

Regarding `CC(C)Nc1ncccn1` [ISAXONINE], the results for the “Hepatotoxicity (moderate)” value in data set [1] and in [7] were 0% and 0, respectively. Moreover, the “Hepatotoxicity (acute)” value is 0% in data set [2] and 13 in data set [8]. For the same compound, in data set [3], the “Hepatotoxicity (successful reintroduction)” value was “yes”. The “Hepatotoxicity (comment)” value in [4] is listed as “AC_ANTI-MFR1”. Further, the “Hepatotoxicity (time to onset)” value in [5] came to 1 month - 6 months. Besides, the “Hepatotoxicity (mechanism)” value in [6] is given as “Allergic, Reactive metabolite”. In addition, the “Hepatotoxicity (cytolytic)” value in data set [9] worked out at 13. Moreover, in data set [10], the “Hepatotoxicity (choleostasis)” value was 3. The “Hepatotoxicity (severe hepatitis)” value in data set [11] was 4. Further, the “Hepatotoxicity (chronic liver disease)” value in data set [12] is 0. The “Hepatotoxicity (cirrhosis)” value in [13] is 0. The “Hepatotoxicity (granulomatous hepatitis)” value in data set [14] turned out to be 1. Besides, the “Hepatotoxicity (association with vascular disease)” value in [15] is on record as 0. Moreover, in [16], the “Hepatotoxicity (steatosis)” value was determined as 1. For the same compound, the “Hepatotoxicity (malignant tumour)” value in data set [17] was determined as 0. The “Hepatotoxicity (benign tumour)” value in [18] was found to be 0. The “Hepatotoxicity (animal toxicity known)” value in data set [19] is on record as “yes”.

On to `NNC(=O)c1ccncc1` [ISONIAZID], for which the “Hepatotoxicity (moderate)” value in data set [1] is 51.2%; in [7], 60. The “Hepatotoxicity (acute)” value is 26.7% in data set [2] and 91 in data set [8]. The “Hepatotoxicity (successful reintroduction)” value in data set [3] is “yes”. Besides, in data set [4], the “Hepatotoxicity (comment)” value is “I/CARBAMAZE/ENFLURANE/PARACETAMOL/RIFAMPICINE/RIFAMYCINE/VALPROATE”. Further, the “Hepatotoxicity (time to onset)” value in data set [5] stood at 1 day - 1 year. Further, the “Hepatotoxicity (mechanism)” value in data set [6] is recorded as “Dose-dependant, Reactive metabolite”. In [9], the “Hepatotoxicity (cytolytic)” value came to 61. The “Hepatotoxicity (choleostasis)” value in data set [10] worked out at 11. Besides, the “Hepatotoxicity (severe hepatitis)” value in [11] is 40. Moreover, in [12], the “Hepatotoxicity (chronic liver disease)” value is 3. Besides, the “Hepatotoxicity (cirrhosis)” value in [13] stood at 4. Moreover, in data set [14], the “Hepatotoxicity (granulomatous hepatitis)” value was 1. Besides, the “Hepatotoxicity (association with vascular disease)” value in data set [15] is given as 0. Besides, the “Hepatotoxicity (steatosis)” value in [16] came to 1. In data set [17], the “Hepatotoxicity (malignant tumour)” value worked out at 0. The “Hepatotoxicity (benign tumour)” value in data set [18] came out at 0. Besides, the “Hepatotoxicity (animal toxicity known)” value in data set [19] is listed as “yes”.

For the compound `CC(=O)N1CCN(c2ccc(OCC3COC(Cn4ccnc4)(c4ccc(Cl)cc4Cl)O3)cc2)CC1` (configuration not stated) [KETOCONAZOLE], the “Hepatotoxicity (moderate)” value in data set [1] was 50%; in data set [7], 62. The figures for the “Hepatotoxicity (acute)” value in [2] and in data set [8] were 2.9% and 45, respectively. Besides, the “Hepatotoxicity (successful reintroduction)” value in data set [3] is reported as “yes”. In addition, in [4], the “Hepatotoxicity (comment)” value is “CHOLESTASE_PROLONGEE”. For the same compound, the “Hepatotoxicity (time to onset)” value in data set [5] is listed as 3 days - 5 years. For the same compound, the “Hepatotoxicity (mechanism)” value in data set [6] is recorded as “Toxic, Dose-dependant”. In addition, the “Hepatotoxicity (cytolytic)” value in data set [9] is reported as 37. Further, the “Hepatotoxicity (choleostasis)” value in data set [10] came out at 19. In data set [11], the “Hepatotoxicity (severe hepatitis)” value is listed as 14. In addition, in data set [12], the “Hepatotoxicity (chronic liver disease)” value was found to be 3. The “Hepatotoxicity (cirrhosis)” value in [13] stood at 0. Further, the “Hepatotoxicity (granulomatous hepatitis)” value in [14] is given as 1. For the same compound, in [15], the “Hepatotoxicity (association with vascular disease)” value was determined as 0. Further, the “Hepatotoxicity (steatosis)” value in data set [16] is 2. Moreover, in [17], the “Hepatotoxicity (malignant tumour)” value worked out at 0. Further, the “Hepatotoxicity (benign tumour)” value in data set [18] worked out at 0. Also, the “Hepatotoxicity (animal toxicity known)” value in data set [19] is “yes”.

With `C[C@H](CS)C(=O)N1CCC[C@H]1C(=O)O` [CAPTOPRIL], the entries for the “Hepatotoxicity (moderate)” value in data set [1] (Liver) and in data set [7] were 4% and 5, respectively. In addition, the figures for the “Hepatotoxicity (acute)” value in data set [2] (Liver) and in data set [8] were 0.1% and 26, respectively. Besides, in [3], the “Hepatotoxicity (successful reintroduction)” value is “yes”. In [4], the “Hepatotoxicity (comment)” value is given as “PSEUDOCHOLANGITE RC/ENALAPRIL/LISINOPRIL”. Further, the “Hepatotoxicity (time to onset)” value in data set [5] was 9 days - 26 months. Besides, the “Hepatotoxicity (mechanism)” value in data set [6] is “Allergic”. The “Hepatotoxicity (cytolytic)” value in data set [9] was determined as 7. For the same compound, the “Hepatotoxicity (choleostasis)” value in data set [10] is 16. Further, the “Hepatotoxicity (severe hepatitis)” value in data set [11] (Liver) was found to be 1. Moreover, the “Hepatotoxicity (chronic liver disease)” value in data set [12] is reported as 1. In addition, the “Hepatotoxicity (cirrhosis)” value in data set [13] is on record as 1. Moreover, in data set [14], the “Hepatotoxicity (granulomatous hepatitis)” value is 0. For the same compound, the “Hepatotoxicity (association with vascular disease)” value in data set [15] is recorded as 0. The “Hepatotoxicity (steatosis)” value in data set [16] stood at 1. The “Hepatotoxicity (malignant tumour)” value in data set [17] worked out at 0. In addition, in data set [18], the “Hepatotoxicity (benign tumour)” value is listed as 0. Also, the “Hepatotoxicity (animal toxicity known)” value in data set [19] is reported as “yes”.

As for `CN(Cc1cnc2nc(N)nc(N)c2n1)c1ccc(C(=O)N[C@@H](CCC(=O)O)C(=O)O)cc1` [METHOTREXATE], the figures for the “Hepatotoxicity (moderate)” value in data set [1] and in data set [7] were 88% and 173, respectively. For the same compound, the “Hepatotoxicity (acute)” value stood at 35% in [2] and 26 in data set [8]. Moreover, the “Hepatotoxicity (successful reintroduction)” value in data set [3] was “yes”. Also, the “Hepatotoxicity (comment)” value in data set [4] was “I/ETRETINATE REACTIVATION_HVB SHNA MVO”. In [5], the “Hepatotoxicity (time to onset)” value was found to be 4 hours - 16 years. For the same compound, the “Hepatotoxicity (mechanism)” value in data set [6] was “Dose-dependant”. The “Hepatotoxicity (cytolytic)” value in data set [9] amounted to 21. Further, the “Hepatotoxicity (choleostasis)” value in data set [10] is listed as 2. For the same compound, the “Hepatotoxicity (severe hepatitis)” value in data set [11] is 5. Also, the “Hepatotoxicity (chronic liver disease)” value in data set [12] came to 45. Besides, the “Hepatotoxicity (cirrhosis)” value in data set [13] is reported as 42. In addition, in data set [14], the “Hepatotoxicity (granulomatous hepatitis)” value was found to be 8. Also, in data set [15], the “Hepatotoxicity (association with vascular disease)” value is 5. In [16], the “Hepatotoxicity (steatosis)” value is on record as 16. In addition, the “Hepatotoxicity (malignant tumour)” value in data set [17] was found to be 8. The “Hepatotoxicity (benign tumour)” value in [18] stood at 0. Besides, the “Hepatotoxicity (animal toxicity known)” value in data set [19] is listed as “yes”.

In the case of `CC(C)C(=O)Nc1ccc([N+](=O)[O-])c(C(F)(F)F)c1` [FLUTAMIDE], the “Hepatotoxicity (moderate)” value is given as 41.2% in data set [1] and 21 in [7]. The “Hepatotoxicity (acute)” value turned out to be 10% in [2] and 31 in data set [8]. In addition, in data set [3], the “Hepatotoxicity (successful reintroduction)” value was “yes”. For the same compound, the “Hepatotoxicity (comment)” value in [4] is reported as “AC_ANTI-N”. Besides, in data set [5], the “Hepatotoxicity (time to onset)” value is recorded as 3 days - 10 months. For the same compound, in [6], the “Hepatotoxicity (mechanism)” value is recorded as “Allergic, Reactive metabolite, Dose-dependant”. The “Hepatotoxicity (cytolytic)” value in data set [9] came to 21. Besides, the “Hepatotoxicity (choleostasis)” value in [10] was 7. The “Hepatotoxicity (severe hepatitis)” value in data set [11] was 16. Also, the “Hepatotoxicity (chronic liver disease)” value in data set [12] turned out to be 0. The “Hepatotoxicity (cirrhosis)” value in data set [13] stood at 0. Moreover, the “Hepatotoxicity (granulomatous hepatitis)” value in [14] stood at 0. For the same compound, the “Hepatotoxicity (association with vascular disease)” value in [15] worked out at 0. Moreover, the “Hepatotoxicity (steatosis)” value in data set [16] is given as 0. Also, the “Hepatotoxicity (malignant tumour)” value in [17] is 0. In [18], the “Hepatotoxicity (benign tumour)” value was determined as 0. The “Hepatotoxicity (animal toxicity known)” value in data set [19] is listed as “yes”.

In the case of `FC(F)OC(F)(F)C(F)Cl` (configuration not stated), the entries for the “Hepatotoxicity (moderate)” value in data set [1] and in data set [7] were 58% and 15, respectively. For the same compound, the “Hepatotoxicity (acute)” value turned out to be 0.7% in data set [2] and 21 in data set [8]. In data set [3], the “Hepatotoxicity (successful reintroduction)” value was “yes”. In data set [4], the “Hepatotoxicity (comment)” value is “RC/HALOTHANE AC_ANTI-TFA”. The “Hepatotoxicity (time to onset)” value in data set [5] was determined as 2 hours - 19 days. The “Hepatotoxicity (mechanism)” value in [6] is “Allergic, Reactive metabolite”. Also, the “Hepatotoxicity (cytolytic)” value in data set [9] is 18. In addition, in [10], the “Hepatotoxicity (choleostasis)” value was 7. Moreover, the “Hepatotoxicity (severe hepatitis)” value in data set [11] was 10. The “Hepatotoxicity (chronic liver disease)” value in data set [12] is 0. Also, the “Hepatotoxicity (cirrhosis)” value in data set [13] is listed as 0. In data set [14], the “Hepatotoxicity (granulomatous hepatitis)” value turned out to be 1. Also, the “Hepatotoxicity (association with vascular disease)” value in data set [15] came to 0. Moreover, the “Hepatotoxicity (steatosis)” value in [16] was 2. Also, the “Hepatotoxicity (malignant tumour)” value in [17] amounted to 0. In [18], the “Hepatotoxicity (benign tumour)” value came out at 0. Besides, the “Hepatotoxicity (animal toxicity known)” value in data set [19] is recorded as “yes”.

As for `Cn1cnc([N+](=O)[O-])c1Sc1ncnc2nc[nH]c12` [AZATHIOPRINE], the “Hepatotoxicity (moderate)” value in [1] (Liver) is recorded as 28%; in data set [7], 40. Also, the entries for the “Hepatotoxicity (acute)” value in [2] (Liver) and in data set [8] were 11.1% and 61, respectively. Also, the “Hepatotoxicity (successful reintroduction)” value in [3] is reported as “yes”. For the same compound, the “Hepatotoxicity (comment)” value in data set [4] is reported as “HNR REACTIVATION_HVB CHOLANGITE MVO PELIOSE”. In [5], the “Hepatotoxicity (time to onset)” value was 2 hours - 8 years. For the same compound, the “Hepatotoxicity (mechanism)” value in [6] (Liver) was “Allergic, Dose-dependant”. Besides, the “Hepatotoxicity (cytolytic)” value in data set [9] (Liver) stood at 19. The “Hepatotoxicity (choleostasis)” value in data set [10] (Liver) was 34. In addition, in data set [11] (Liver), the “Hepatotoxicity (severe hepatitis)” value was 5. Also, the “Hepatotoxicity (chronic liver disease)” value in data set [12] was determined as 3. In data set [13], the “Hepatotoxicity (cirrhosis)” value is listed as 4. Moreover, the “Hepatotoxicity (granulomatous hepatitis)” value in data set [14] (Liver) was 2. For the same compound, the “Hepatotoxicity (association with vascular disease)” value in [15] came out at 27. In addition, the “Hepatotoxicity (steatosis)” value in [16] stood at 3. Besides, the “Hepatotoxicity (malignant tumour)” value in [17] amounted to 6. Moreover, the “Hepatotoxicity (benign tumour)” value in data set [18] is on record as 18. Also, in [19], the “Hepatotoxicity (animal toxicity known)” value is given as “yes”.

The values are drawn from ChEMBL document CHEMBL3137667, “[Drug-induced liver injury; fourteenth updated edition of the bibliographic database of liver injuries and related drugs]” (Gastroenterol Clin Biol, 2004).
